Measurements: patent publication US20240358015A1, “HERBICIDAL COMPOSITIONS” (Agrematch Ltd., priority 2021, published 2024)

Experiments:
[1] = system: B. cinerea; test: PDA plate fungicidal assay (Example 4); assay type: cell-based, Botrytis cinerea; conditions: average of two plates
Experimental: Compound 1 was dissolved in 0.05 M Tris buffer pH=8 to a concentration of 4 mg/ml, and then diluted with a sterile PDA solution to final concentrations of 40 and 400 μg/ml. 10 ml of each solution were poured to a 100 mm petri dish and left to cool down. A 0.5 cm diameter agar disc inoculated with 3-day old B. cinerea hypha was placed upside down in the center of each PDA plate. Each treatment contained two repeats (two plates). Plates were incubated at 21° C. for 4 days. Fungicidal activity was scored by measuring the radial growth area of the hypha. Results were recorded 2-4 days after inoculation (DAI). % growth inhibition was calculated relative to control treatment without Compound 1.

[2] = system: A. palmeri; test: Greenhouse post-emergence assay (Example 3); assay type: in vivo, Amaranthus palmeri; conditions: 4% TWEEN 20, 0.05 M Tris buffer pH 8, 0.05% Break-Thru
Experimental: Plant seeds were sowed in 9 cm×9 cm×10 cm flowerpots. Timing of sowing (days before treatment application) for each plant is detailed in Table 7 below. 5 flowerpots of each species were used for each treatment. Seeds were sowed in wet clay soil and then covered with about 1 cm layer of dry clay soil.
Irrigation: Irrigation was carried out using VIBRONET-UD (NETAFIM) sprinklers hanging upside down one meter above the flowerpots. Water flow capacity-50 liters per hour. Irrigation was carried out three times a day for 10 minutes.
Treatments: Table 8 presents generally the protocols of the various treatments used in these assays.
57.6 ml of 0.05 M Tris buffer pH=8 were added to 150 mg of Compound 1 and the mixture was stirred using a magnetic stirrer. 2.4 ml of TWEEN®20 were added and the mixture was stirred using a magnetic stirrer to obtain a 4% TWEEN®20-containing solution. 30 μl of Break-Thru were added to obtain a 0.05% Break-Thru-containing solution.
57.6 ml of 0.05 M Tris buffer pH=8 were added to 225 mg of Compound 1 and the mixture was stirred using a magnetic stirrer. 2.4 ml of TWEEN®20 were added and the mixture was stirred using a magnetic stirrer to obtain a 4% TWEEN®20-containing solution. 30 μl of Break-Thru were added to obtain a 0.05% Break-Thru-containing solution.
Plants were sprayed using a DeVreis Generation 4 Research Track Sprayer with a TEE JET nozzle 80015EVS. Spraying volume was 200 L/ha using the following sprayer parameters: • Spray speed-2 KMH • Spray length-1.50 m • Spray pressure-42 PSI
Each plant was sprayed twice, yielding a total spraying volume of 400 L/ha. Nozzle was located 55 cm above pots ground level.
A. palmeri, S. viridis and S. nigrum plants were elevated with 8 cm tray, Z. mays plants were elevated with 3 cm tray in order to achieve a similar spraying height for all plant's foliage.
Plants were scored by visual inspection of symptoms, on a scale of 0-100, where 0 represents no herbicidal activity like control plants and 100 represents the maximal herbicidal activity (i.e., total death of the plant). Each pot was scored separately. DAT=days after treatment

[3] = system: Amaranthus palmeri; test: Net-house post-emergence assay (Example 6); assay type: in vivo; conditions: 750 g/ha, 0.05% MIPA
Experimental: Post-emergence herbicidal activity was tested on Amaranthus palmeri weeds species that were grown in a net-house. Average daily minimum and maximum temperatures during the assay were 20.5° C./[…], respectively. Leaf stage at the time of application was 3-4. In each treatment, 3 flowerpots (7 cm×7 cm×6 cm) containing about 3-6 plants, were sprayed using a VL-SET Paasche Airbrush with a […] 0.75 mg/ml of the tested compound, which is equivalent to 750 g/ha.
Damage assessment: Herbicidal activity was assessed and scored 1-12 days after application by visual inspection of the plants in comparison to plants treated with the formulation alone (with no active ingredient) as control. Activity score is in the range of 0 to 100, where 0 represents no herbicidal activity like control plants and 100 represents the maximal herbicidal activity (i.e., total death of the plant).

[4] = system: E. colonum; test: Growth-chamber post-emergence assay on various weed species (Example 7); assay type: in vivo, Echinochloa colonum; conditions: 1500 g/ha; 0.8% MIPA, 0.25% Genapol, 2% HASTEN, 0.05% Break-Thru
Experimental: Herbicidal activity of Compound 1 was determined by post-emergence application on various weed species. 8-14 day old plants (weeds) were grown at 16 hours/8 hours day/night cycles at 30° C./25° C., respectively. Leaf stage was typically 2-6.
In each treatment, 3 pots (either 7×7 or 8×12 cm), containing about 3-6 plants each, were sprayed using a VL-SET Paasche Airbrush with a 1-1.5 ml-solution containing 0.5-1.5 mg/ml of the tested compound, which is equivalent to about 500-1500 g/ha.
Damage assessment: Herbicidal activity was assessed and scored 3-4 days after application by visual inspection of the plants in comparison to plants treated with the formulation alone (with no active ingredient) as control. Activity score is in the range of 0 to 100, where 0 represents no herbicidal activity like control plants and 100 represents the maximal herbicidal activity (i.e., total death of the plant).

[5] = system: Resistant A. rudis (target-site resistant to HRAC class 5); test: Net-house assay with resistant weeds (Example 9); assay type: in vivo, Amaranthus rudis; conditions: 1,500 g/ha, 13 days after application, scale 0-100
Experimental: (§1) Herbicidal activity of Compound 1 was determined by post-emergence application in both Growth-chamber and Net-house conditions. Growing conditions were as described in Examples 6 and 8 above.
(§2) The assay was performed on 13-15 day old plants (weeds) of Amaranthus rudis that were either target-site resistant or sensitive to HRAC class 5. In each treatment, 3 pots (8×12 cm), containing about 6 Amaranthus Rudis plants, were sprayed using a VL-SET Paasche Airbrush with a 1 ml-solution.
(§3) Damage assessment: Herbicidal activity was assessed and scored 13 days after application by visual inspection of the plants in comparison to plants treated with the formulation alone (with no active ingredient) as control. Activity score is in the range of 0 to 100, where 0 represents no herbicidal activity like control plants and 100 represents the maximal herbicidal activity (i.e., total death of the plant).

[6] = system: Sensitive A. rudis; test: Net-house assay with resistant weeds (Example 9); assay type: in vivo, Amaranthus rudis; conditions: 1,500 g/ha, 13 days after application, scale 0-100
Experimental: as §1, §2, §3

SMILES: O=C(O)c1cc(O)c2c(c1)C(=O)c1cccc(O)c1C2=O [Compound 1, Rhein]
- % growth inhibition (radial growth area of the hypha, relative to control) ([1]; 40 μg/ml in PDA, 2 DAI): 61%
- % growth inhibition (radial growth area of the hypha, relative to control) ([1]; 40 μg/ml in PDA, 3 DAI): 82%
- % growth inhibition (radial growth area of the hypha, relative to control) ([1]; 40 μg/ml in PDA, 4 DAI): 86%
- % growth inhibition (radial growth area of the hypha, relative to control) ([1]; 400 μg/ml in PDA, 2 DAI): 82%
- % growth inhibition (radial growth area of the hypha, relative to control) ([1]; 400 μg/ml in PDA, 3 DAI): 88%
- % growth inhibition (radial growth area of the hypha, relative to control) ([1]; 400 μg/ml in PDA, 4 DAI): 83%
- Score by visual inspection of symptoms (average ± standard deviation, 5 pots) ([2]; 1000 g/ha (2.5 mg/ml, 400 L/ha), 1 DAT, scale 0-100): 22 ± 13
- Score by visual inspection of symptoms (average ± standard deviation, 5 pots) ([2]; 1000 g/ha (2.5 mg/ml, 400 L/ha), 3 DAT): 54 ± 11.4
- Score by visual inspection of symptoms (average ± standard deviation, 5 pots) ([2]; 1000 g/ha (2.5 mg/ml, 400 L/ha), 6 DAT): 36 ± 8.9
- Score by visual inspection of symptoms (average ± standard deviation, 5 pots) ([2]; 1000 g/ha (2.5 mg/ml, 400 L/ha), 8 DAT): 34 ± 11.4
- Score by visual inspection of symptoms (average ± standard deviation, 5 pots) ([2]; 1000 g/ha (2.5 mg/ml, 400 L/ha), 15 DAT): 20 ± 15.8
- Score by visual inspection of symptoms (average ± standard deviation, 5 pots) ([2]; 1500 g/ha (3.75 mg/ml, 400 L/ha), 1 DAT): 38 ± 29.5
- Score by visual inspection of symptoms (average ± standard deviation, 5 pots) ([2]; 1500 g/ha (3.75 mg/ml, 400 L/ha), 3 DAT): 90 ± 9.4
- Score by visual inspection of symptoms (average ± standard deviation, 5 pots) ([2]; 1500 g/ha (3.75 mg/ml, 400 L/ha), 6 DAT): 87 ± 9.7
- Score by visual inspection of symptoms (average ± standard deviation, 5 pots) ([2]; 1500 g/ha (3.75 mg/ml, 400 L/ha), 8 DAT): 83 ± 14
- Score by visual inspection of symptoms (average ± standard deviation, 5 pots) ([2]; 1500 g/ha (3.75 mg/ml, 400 L/ha), 15 DAT): 66 ± 29.7
- Herbicidal activity score ([3]; 2% Hasten, 0.05% Break-Thru, 1 DAT): 95
- Herbicidal activity score ([3]; 2% Hasten, 0.05% Break-Thru, 3 DAT): 95
- Herbicidal activity score ([3]; 2% Hasten, 0.05% Break-Thru, 5 DAT): 90
- Herbicidal activity score ([3]; 2% Hasten, 0.05% Break-Thru, 7 DAT): 90
- Herbicidal activity score ([3]; 2% Hasten, 0.05% Break-Thru, 12 DAT): 80
- Herbicidal activity score ([3]; 2% TWEEN20, 0.05% Break-Thru, 1 DAT, scale 0-100): 95
- Herbicidal activity score ([3]; 2% TWEEN20, 0.05% Break-Thru, 3 DAT): 100
- Herbicidal activity score ([3]; 2% TWEEN20, 0.05% Break-Thru, 5 DAT): 100
- Herbicidal activity score ([3]; 2% TWEEN20, 0.05% Break-Thru, 7 DAT): 100
- Herbicidal activity score ([3]; 2% TWEEN20, 0.05% Break-Thru, 12 DAT): 100
- Herbicidal activity score [4]: 90
- Herbicidal activity score [5]: 100
- Herbicidal activity score [6]: 100
